{"source": "paper PMC5361735", "about": "“Characterization and mechanisms of anti-influenza virus metabolites isolated from the Vietnamese medicinal plant Polygonum chinense” (BMC Complementary and Alternative Medicine, 2017)", "key": {"[1]": {"target": "NA activity of influenza virus PR8 (Influenza A virus, UniProt P03468)", "assay_type": "biochemical"}, "[2]": {"target": "NA activity of rgPR8(H275Y) (Influenza A virus, UniProt P03468, H260Y)", "assay_type": "biochemical"}}}
{"smiles": "O=C(O)/C=C/c1ccc(O)c(O)c1", "note": "[PC8, Caffeic acid]", "values": [{"measurement": "NA inhibitory effect against PR8", "setting": "[1]", "value": "less potent than that of OSV-C"}, {"measurement": "NA inhibitory effect against rgPR8(H275Y)", "setting": "[2]", "value": "consistent activity"}]}
